One assay relates to HCT-116. The assay can be described thus: Cytotoxicity against human HCT116 cells by MTT assay. Format: functional, cell-based. (In general: Tetrazolium dyes change colour on reduction, which living cells bring about.)
The subject of the next assay is MDA-MB-231. The experiment in a line: Cytotoxicity against human MDA-MB-231 cells by MTT assay. Format: functional, cell-based.
A further assay deals with KB. The experiment in a line: Cytotoxicity against human KB cells by MTT assay. Format: functional, cell-based.
Another assay deals with A549. The assay can be described thus: Cytotoxicity against human A549 cells by MTT assay. In kind it is functional, cell-based.
In assay [1] the target is T1, DNA topoisomerase 1 (Homo sapiens) (UniProt P11387).
T1 sequence (whole entry): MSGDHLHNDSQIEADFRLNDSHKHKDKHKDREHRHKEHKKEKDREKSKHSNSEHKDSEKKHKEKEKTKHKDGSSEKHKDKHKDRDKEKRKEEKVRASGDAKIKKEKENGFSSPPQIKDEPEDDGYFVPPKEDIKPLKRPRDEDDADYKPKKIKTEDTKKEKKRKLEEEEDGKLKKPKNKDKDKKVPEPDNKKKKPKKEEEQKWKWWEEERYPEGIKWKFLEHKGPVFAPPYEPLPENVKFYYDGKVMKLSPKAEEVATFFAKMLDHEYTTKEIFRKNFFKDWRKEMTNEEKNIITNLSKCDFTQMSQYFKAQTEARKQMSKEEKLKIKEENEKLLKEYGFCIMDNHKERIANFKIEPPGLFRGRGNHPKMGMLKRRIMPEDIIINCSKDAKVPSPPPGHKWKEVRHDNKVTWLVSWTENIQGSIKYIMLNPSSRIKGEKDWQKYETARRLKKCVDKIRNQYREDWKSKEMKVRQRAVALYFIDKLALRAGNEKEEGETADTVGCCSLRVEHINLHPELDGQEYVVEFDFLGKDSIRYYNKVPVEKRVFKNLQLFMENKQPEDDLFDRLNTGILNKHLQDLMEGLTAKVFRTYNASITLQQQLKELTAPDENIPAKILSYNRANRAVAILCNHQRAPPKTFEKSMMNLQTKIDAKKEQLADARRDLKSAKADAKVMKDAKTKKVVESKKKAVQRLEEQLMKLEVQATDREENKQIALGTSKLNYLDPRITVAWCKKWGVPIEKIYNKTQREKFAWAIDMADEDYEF
The experiment in a line: Inhibition of human topoisomerase 1-mediated relaxation of supercoiled plasmid DNA assessed as formation of linear DNA at 100 uM by agarose gel electrophoresis.

A further assay has as its system Bel-7402. The experiment in a line: Cytotoxicity against human Bel7402 cells by MTT assay. Format: functional, cell-based.
For assay [2], the target named is DNA topoisomerase 2-alpha (Homo sapiens) (UniProt P11388). The experiment in a line: Inhibition of human topoisomerase 2-mediated relaxation of supercoiled plasmid DNA assessed as formation of linear DNA at 100 uM by agarose gel electrophoresis.
Chain of DNA topoisomerase 2-alpha (Homo sapiens) (P11388 whole entry): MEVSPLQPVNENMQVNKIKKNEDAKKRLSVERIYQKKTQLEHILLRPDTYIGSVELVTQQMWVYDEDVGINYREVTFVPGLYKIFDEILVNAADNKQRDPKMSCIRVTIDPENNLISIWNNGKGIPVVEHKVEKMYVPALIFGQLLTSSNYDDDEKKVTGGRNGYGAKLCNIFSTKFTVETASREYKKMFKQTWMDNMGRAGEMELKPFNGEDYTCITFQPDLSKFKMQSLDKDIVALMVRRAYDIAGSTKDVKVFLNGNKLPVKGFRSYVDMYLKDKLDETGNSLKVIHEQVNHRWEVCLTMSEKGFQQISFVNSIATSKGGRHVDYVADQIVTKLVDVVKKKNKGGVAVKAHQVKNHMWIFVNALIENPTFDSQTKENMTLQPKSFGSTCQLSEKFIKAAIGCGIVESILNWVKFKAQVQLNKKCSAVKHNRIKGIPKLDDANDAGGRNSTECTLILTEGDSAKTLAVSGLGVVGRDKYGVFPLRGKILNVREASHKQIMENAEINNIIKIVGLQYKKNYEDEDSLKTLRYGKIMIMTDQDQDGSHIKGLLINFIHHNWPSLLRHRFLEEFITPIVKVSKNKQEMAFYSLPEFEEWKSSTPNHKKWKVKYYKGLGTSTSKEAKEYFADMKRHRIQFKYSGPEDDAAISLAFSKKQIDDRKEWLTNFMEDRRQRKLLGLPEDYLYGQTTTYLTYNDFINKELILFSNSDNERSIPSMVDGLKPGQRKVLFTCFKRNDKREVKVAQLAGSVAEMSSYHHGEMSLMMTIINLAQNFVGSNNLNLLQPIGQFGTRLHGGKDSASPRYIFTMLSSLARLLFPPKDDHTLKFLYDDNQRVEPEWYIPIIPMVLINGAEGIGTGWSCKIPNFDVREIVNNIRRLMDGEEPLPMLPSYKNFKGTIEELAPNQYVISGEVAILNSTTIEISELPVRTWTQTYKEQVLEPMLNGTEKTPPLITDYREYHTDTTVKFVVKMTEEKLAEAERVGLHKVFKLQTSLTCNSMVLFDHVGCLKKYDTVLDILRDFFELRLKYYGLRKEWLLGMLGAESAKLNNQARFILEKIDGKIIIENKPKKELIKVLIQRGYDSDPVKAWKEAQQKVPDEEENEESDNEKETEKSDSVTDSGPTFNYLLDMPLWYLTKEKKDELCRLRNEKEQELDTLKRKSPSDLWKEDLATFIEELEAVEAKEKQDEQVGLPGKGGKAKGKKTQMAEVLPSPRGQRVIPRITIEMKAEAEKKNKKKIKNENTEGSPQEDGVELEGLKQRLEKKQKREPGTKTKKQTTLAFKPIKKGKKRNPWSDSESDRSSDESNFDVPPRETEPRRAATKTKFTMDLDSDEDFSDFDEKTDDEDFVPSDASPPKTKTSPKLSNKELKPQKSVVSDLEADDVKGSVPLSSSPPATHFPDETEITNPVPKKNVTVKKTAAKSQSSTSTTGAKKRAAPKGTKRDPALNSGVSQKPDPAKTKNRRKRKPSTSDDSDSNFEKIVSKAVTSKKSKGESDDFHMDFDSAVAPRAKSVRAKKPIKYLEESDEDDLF

SMILES strings stand for the structures. Active and inactive are the calls of the source. No cut-off for these calls is given here. Some results are limits rather than exact numbers.

Usually IC50 stands for the concentration needed to halve the response being measured. Higher therefore signals a need for much substance.

As to `CCn1cc(C(=O)Nc2nccs2)c(=O)c2cc(F)c(N3CCNC(C)C3)c(F)c21` (stereo not drawn), the IC50 was 8.66 µM in the assay on HCT-116; greater than 50 µM in the assay with MDA-MB-231; 43.5 µM in the assay on KB; 20.2 µM with A549; greater than 50 µM with Bel-7402. Moreover, the inhibition result in assay [1] was “inactive”.
Take `CCn1cc(C(=O)NCc2ccc(OC)cc2)c(=O)c2cc(F)c(N3CCNC(C)C3)c(F)c21` (stereo not drawn): the IC50 with HCT-116 was 1.4 µM; in the assay with MDA-MB-231, 25.3 µM; with KB it was 1.63 µM; with A549, 7 µM; in the assay with Bel-7402, 10.3 µM. Also, the inhibition result in assay [1] was “inactive”.
Turning to `CCn1cc(C(=O)Nc2ccccc2N)c(=O)c2cc(F)c(N3CCNC(C)C3)c(F)c21` (stereo not drawn), the IC50 in the assay on HCT-116 turned out to be 2.7 µM; in the assay with MDA-MB-231, 9.5 µM; in the assay on KB, 2.8 µM; in the assay on A549, 5.9 µM; in the assay with Bel-7402, 4.8 µM. Moreover, in assay [1], the inhibition entry was “inactive”.
As to `CCn1cc(C(=O)Nc2ccccc2O)c(=O)c2cc(F)c(N3CCNC(C)C3)c(F)c21` (stereo not drawn), the IC50 with HCT-116 was 5.37 µM; with MDA-MB-231 it was 7.43 µM; in the assay with KB, 5.05 µM; with A549, 24.8 µM; with Bel-7402 it was greater than 50 µM. Moreover, the inhibition result in assay [1] is “inactive”.
Turning to `CCn1cc(C(=O)Nc2ccc(OC)cc2)c(=O)c2cc(F)c(N3CCNC(C)C3)c(F)c21` (stereo not drawn), the IC50 in the assay on HCT-116 worked out at 3.8 µM; in the assay on MDA-MB-231, 7.3 µM; with KB, 2.6 µM; in the assay on A549, 9.7 µM; in the assay on Bel-7402, 5.4 µM. Further, the inhibition result in assay [1] was “inactive”.
On to `CCn1cc(C(=O)Nc2cccc([N+](=O)[O-])c2)c(=O)c2cc(F)c(N3CCNC(C)C3)c(F)c21` (stereo not drawn), for which the IC50 in the assay on HCT-116 was found to be 2.71 µM; in the assay with MDA-MB-231, 3.25 µM; with KB, 1.7 µM; in the assay on A549 it was 3.24 µM; in the assay on Bel-7402, 1 µM. In assay [1], the inhibition result was “inactive”. Moreover, the inhibition result in assay [2] is “Active”.
`CC[C@@]1(O)C(=O)OCc2c1cc1n(c2=O)Cc2cc3cc(O)ccc3nc2-1` [HYDROXYCAMPTOTHECIN]: the IC50 was found to be 0.3 µM in the assay on HCT-116, 0.06 µM in the assay with MDA-MB-231 and 0.07 µM with A549.
Regarding `CCn1cc(C(=O)Nc2ccc(Cl)cn2)c(=O)c2cc(F)c(N3CCNC(C)C3)c(F)c21` (stereo not drawn), the half-inhibitory concentration (IC50) in the assay on HCT-116 amounted to 3.3 µM; with MDA-MB-231, 4.8 µM; in the assay with KB, 1.6 µM; in the assay with A549, 3.3 µM; with Bel-7402 it was 4.9 µM. Also, in assay [1], the inhibition entry is “inactive”. For the same compound, the inhibition result in assay [2] was “Active”.
For `CCn1cc(C(=O)Nc2ccc(C)c([N+](=O)[O-])c2)c(=O)c2cc(F)c(N3CCNC(C)C3)c(F)c21` (stereo not drawn), the IC50 with HCT-116 came to 11.8 µM; in the assay on MDA-MB-231, 4.2 µM; with KB, 3.9 µM; in the assay on A549 it was 3.7 µM; with Bel-7402 it was 29.1 µM. For the same compound, in assay [1], the inhibition result was “inactive”. Moreover, the inhibition entry in assay [2] was “Active”.
`CCn1cc(C(=O)Nc2ccc(OC(F)(F)F)cc2)c(=O)c2cc(F)c(N3CCNC(C)C3)c(F)c21` (stereo not drawn): the IC50 with HCT-116 worked out at 2.35 µM; in the assay on MDA-MB-231, 0.98 µM; with KB, 1.4 µM; in the assay with A549 it was 1.32 µM; with Bel-7402 it was 2 µM. Moreover, the inhibition result in assay [1] is “inactive”. The inhibition result in assay [2] is “Active”.
For the compound `CCn1cc(C(=O)Nc2cc([N+](=O)[O-])ccc2F)c(=O)c2cc(F)c(N3CCNC(C)C3)c(F)c21` (stereo not drawn), the half-inhibitory concentration (IC50) is 2.6 µM with HCT-116; 6.9 µM in the assay on MDA-MB-231; 3.2 µM with KB; 1.7 µM in the assay with A549; 2.9 µM in the assay with Bel-7402. In addition, the inhibition entry in assay [1] is “inactive”. The inhibition entry in assay [2] was “Active”.
With `CCn1cc(C(=O)Nc2ccccc2)c(=O)c2cc(F)c(N3CCNC(C)C3)c(F)c21` (stereo not drawn), the IC50 came out at 12.7 µM in the assay on HCT-116; 7.4 µM in the assay on MDA-MB-231; 4.4 µM in the assay with KB; 39.3 µM with A549; 6 µM in the assay with Bel-7402. In addition, in assay [1], the inhibition result was “inactive”.
Turning to `CCn1cc(C(=O)Nc2ccc(C(C)=O)cc2)c(=O)c2cc(F)c(N3CCNC(C)C3)c(F)c21` (stereo not drawn), the IC50 in the assay with HCT-116 is 4.6 µM; with MDA-MB-231, 5.6 µM; with KB it was 42.6 µM; with A549, 4 µM; in the assay on Bel-7402 it was greater than 50 µM. Moreover, the inhibition entry in assay [1] is “inactive”. Besides, in assay [2], the inhibition result was “Active”.
As for `COc1cc([C@@H]2c3cc4c(cc3[C@@H](O[C@@H]3O[C@@H]5CO[C@@H](C)O[C@H]5[C@H](O)[C@H]3O)[C@H]3COC(=O)[C@H]23)OCO4)cc(OC)c1O`, the inhibition result in assay [2] was “Active”.
In the case of `CCn1cc(-c2nc3ccc([N+](=O)[O-])cc3o2)c(=O)c2cc(F)c(N3CCNC(C)C3)c(F)c21` (stereo not drawn), the IC50 was 1.1 µM in the assay on HCT-116; 2 µM with MDA-MB-231; 0.9 µM in the assay with KB; 0.9 µM in the assay on A549; 1.6 µM in the assay with Bel-7402. Further, the inhibition result in assay [1] was “inactive”.

The values are drawn from ChEMBL document CHEMBL2380303, “Synthesis, cytotoxicity and topoisomerase II inhibitory activity of lomefloxacin derivatives” (Bioorg Med Chem Lett, 2013).
